≈ marks a conversion by molar mass, not a printed value.
How the values were obtained:
Fusarium oxysporum [1] = assay: Antifungal activity against Fusarium oxysporum at 100 ug/mL; type: functional; settings: read-out: IZ
Penicillium citrinum [2] = assay: Antifungal activity against Penicillium citrinum; type: functional
Salmonella typhi [3] = assay: Antibacterial activity against Salmonella typhi
Escherichia coli [4] = assay: Antibacterial activity against Escherichia coli at 100 ug/mL; type: functional; settings: read-out: IZ
Escherichia coli [5] = assay: Antibacterial activity against Escherichia coli at 50 ug/mL; type: functional; settings: read-out: IZ
Aspergillus flavus [6] = assay: Antifungal activity against Aspergillus flavus; type: functional
Penicillium citrinum [7] = assay: Antifungal activity against Penicillium citrinum at 100 ug/mL; type: functional; settings: read-out: IZ
Fusarium oxysporum [8] = assay: Antifungal activity against Fusarium oxysporum at 50 ug/mL; type: functional; settings: read-out: IZ
Escherichia coli [9] = assay: Antibacterial activity against Escherichia coli; type: functional
Salmonella typhi [10] = assay: Antibacterial activity against Salmonella typhi at 100 ug/mL; settings: read-out: IZ
Aspergillus flavus [11] = assay: Antifungal activity against Aspergillus flavus at 50 ug/mL; type: functional; settings: read-out: IZ
Salmonella typhi [12] = assay: Antibacterial activity against Salmonella typhi at 50 ug/mL; settings: read-out: IZ
Bacillus subtilis [13] = assay: Antibacterial activity against Bacillus subtilis; type: functional
Bacillus subtilis [14] = assay: Antibacterial activity against Bacillus subtilis at 100 ug/mL; type: functional; settings: read-out: IZ
Aspergillus flavus [15] = assay: Antifungal activity against Aspergillus flavus at 100 ug/mL; type: functional; settings: read-out: IZ
Bacillus subtilis [16] = assay: Antibacterial activity against Bacillus subtilis at 50 ug/mL; type: functional; settings: read-out: IZ
Penicillium citrinum [17] = assay: Antifungal activity against Penicillium citrinum at 50 ug/mL; type: functional; settings: read-out: IZ
Fusarium oxysporum [18] = assay: Antifungal activity against Fusarium oxysporum; type: functional

SMILES	MIC (Penicillium citrinum [2])	MIC (Salmonella typhi [3])	MIC (Aspergillus flavus [6])	MIC (Escherichia coli [9])	MIC (Bacillus subtilis [13])	MIC (Fusarium oxysporum [18])	zone of inhibition at 100 µg/mL (Fusarium oxysporum [1])	zone of inhibition at 100 µg/mL (Escherichia coli [4])	zone of inhibition at 50 µg/mL (Escherichia coli [5])	zone of inhibition at 100 µg/mL (Penicillium citrinum [7])	zone of inhibition at 50 µg/mL (Fusarium oxysporum [8])	zone of inhibition at 100 µg/mL (Salmonella typhi [10])	zone of inhibition at 50 µg/mL (Aspergillus flavus [11])	zone of inhibition at 50 µg/mL (Salmonella typhi [12])	zone of inhibition at 100 µg/mL (Bacillus subtilis [14])	zone of inhibition at 100 µg/mL (Aspergillus flavus [15])	zone of inhibition at 50 µg/mL (Bacillus subtilis [16])	zone of inhibition at 50 µg/mL (Penicillium citrinum [17])
O=C(Cn1ncc2cc([N+](=O)[O-])ccc21)NN1C(=O)CSC1c1ccccc1 (configuration not stated)	25 µg/mL (≈ 62.9 µM)	18 µg/mL (≈ 45.3 µM)	19 µg/mL (≈ 47.8 µM)	18 µg/mL (≈ 45.3 µM)	23 µg/mL (≈ 57.9 µM)	15 µg/mL (≈ 37.7 µM)	20 mm	19.1 mm	17.2 mm	18.4 mm	17.1 mm	18.4 mm	16 mm	14.6 mm	17.4 mm	19 mm	13.5 mm	14.8 mm
O=C(Cn1ncc2cc([N+](=O)[O-])ccc21)NN1C(=O)CSC1c1cccc([N+](=O)[O-])c1 (configuration not stated)	14 µg/mL (≈ 31.6 µM)	12 µg/mL (≈ 27.1 µM)	11 µg/mL (≈ 24.9 µM)	10 µg/mL (≈ 22.6 µM)	15 µg/mL (≈ 33.9 µM)	8 µg/mL (≈ 18.1 µM)	28.4 mm	28 mm	24.6 mm	26.5 mm	25.1 mm	25.8 mm	24.7 mm	22 mm	26.1 mm	27 mm	21 mm	22.3 mm
COC1=CC(=O)C[C@@H](C)[C@]12Oc1c(Cl)c(OC)cc(OC)c1C2=O [GRISEOFULVIN]	11 µg/mL (≈ 31.2 µM)	–	9 µg/mL (≈ 25.5 µM)	–	–	6 µg/mL (≈ 17 µM)	32 mm	–	–	28 mm	28 mm	–	27 mm	–	–	30 mm	–	25 mm
O=C(Cn1ncc2cc([N+](=O)[O-])ccc21)NN1C(=O)CSC1c1ccc(Cl)cc1 (configuration not stated)	17 µg/mL (≈ 39.4 µM)	15 µg/mL (≈ 34.7 µM)	13 µg/mL (≈ 30.1 µM)	13 µg/mL (≈ 30.1 µM)	16 µg/mL (≈ 37 µM)	11 µg/mL (≈ 25.5 µM)	25.8 mm	25.6 mm	22.3 mm	24.4 mm	22.9 mm	23.9 mm	22.3 mm	20 mm	23.7 mm	25 mm	18.8 mm	20.2 mm
CN[C@@H]1[C@H](O[C@H]2[C@H](O[C@H]3[C@H](O)[C@@H](O)[C@H](N=C(N)N)[C@@H](O)[C@@H]3N=C(N)N)O[C@@H](C)[C@]2(O)C=O)O[C@@H](CO)[C@H](O)[C@H]1O [STREPTOMYCIN]	–	10 µg/mL (≈ 17.2 µM)	–	8 µg/mL (≈ 13.8 µM)	12 µg/mL (≈ 20.6 µM)	–	–	30 mm	26 mm	–	–	28 mm	–	25 mm	27 mm	–	23 mm	–
CCOC(=O)Cn1ncc2cc([N+](=O)[O-])ccc21	40 µg/mL (≈ 160 µM)	38 µg/mL (≈ 152 µM)	34 µg/mL (≈ 136 µM)	35 µg/mL (≈ 140 µM)	45 µg/mL (≈ 181 µM)	30 µg/mL (≈ 120 µM)	9 mm	8 mm	5 mm	6 mm	6.5 mm	7 mm	5.8 mm	4 mm	5 mm	8 mm	3 mm	4 mm
O=C(Cn1ncc2cc([N+](=O)[O-])ccc21)NN1C(=O)CSC1c1ccccc1O (configuration not stated)	22 µg/mL (≈ 53.2 µM)	17 µg/mL (≈ 41.1 µM)	18 µg/mL (≈ 43.5 µM)	16 µg/mL (≈ 38.7 µM)	21 µg/mL (≈ 50.8 µM)	15 µg/mL (≈ 36.3 µM)	21.4 mm	20.5 mm	18.4 mm	19.7 mm	18.5 mm	19.9 mm	17.3 mm	16 mm	18.9 mm	20.4 mm	14.7 mm	16 mm
COc1ccccc1C1SCC(=O)N1NC(=O)Cn1ncc2cc([N+](=O)[O-])ccc21 (configuration not stated)	28 µg/mL (≈ 65.5 µM)	22 µg/mL (≈ 51.5 µM)	20 µg/mL (≈ 46.8 µM)	20 µg/mL (≈ 46.8 µM)	30 µg/mL (≈ 70.2 µM)	17 µg/mL (≈ 39.8 µM)	18 mm	17.2 mm	14.8 mm	16 mm	15 mm	16.1 mm	13.9 mm	13 mm	15 mm	16.8 mm	11.5 mm	12.5 mm
O=C(Cn1ncc2cc([N+](=O)[O-])ccc21)NN1C(=O)CSC1c1ccccc1[N+](=O)[O-] (configuration not stated)	15 µg/mL (≈ 33.9 µM)	13 µg/mL (≈ 29.4 µM)	11 µg/mL (≈ 24.9 µM)	11 µg/mL (≈ 24.9 µM)	15 µg/mL (≈ 33.9 µM)	9 µg/mL (≈ 20.3 µM)	27 mm	26.9 mm	23.5 mm	25.6 mm	24.2 mm	25 mm	23.6 mm	21.2 mm	25.5 mm	26.1 mm	20 mm	21.4 mm

More lines, main results first:

MIC (Penicillium citrinum [2])	MIC (Salmonella typhi [3])	MIC (Aspergillus flavus [6])	MIC (Escherichia coli [9])	MIC (Bacillus subtilis [13])	MIC (Fusarium oxysporum [18])	SMILES	zone of inhibition at 100 µg/mL (Fusarium oxysporum [1])	zone of inhibition at 100 µg/mL (Escherichia coli [4])	zone of inhibition at 50 µg/mL (Escherichia coli [5])	zone of inhibition at 100 µg/mL (Penicillium citrinum [7])	zone of inhibition at 50 µg/mL (Fusarium oxysporum [8])	zone of inhibition at 100 µg/mL (Salmonella typhi [10])	zone of inhibition at 50 µg/mL (Aspergillus flavus [11])	zone of inhibition at 50 µg/mL (Salmonella typhi [12])	zone of inhibition at 100 µg/mL (Bacillus subtilis [14])	zone of inhibition at 100 µg/mL (Aspergillus flavus [15])	zone of inhibition at 50 µg/mL (Bacillus subtilis [16])	zone of inhibition at 50 µg/mL (Penicillium citrinum [17])
36 µg/mL (≈ 98.3 µM)	32 µg/mL (≈ 87.3 µM)	27 µg/mL (≈ 73.7 µM)	30 µg/mL (≈ 81.9 µM)	41 µg/mL (≈ 112 µM)	23 µg/mL (≈ 62.8 µM)	CN(C)c1ccc(/C=N/NC(=O)Cn2ncc3cc([N+](=O)[O-])ccc32)cc1	13.8 mm	12.5 mm	10.6 mm	11.5 mm	11.4 mm	12 mm	9.5 mm	8.6 mm	11 mm	12.4 mm	7.5 mm	8.2 mm
18 µg/mL (≈ 48.9 µM)	15 µg/mL (≈ 40.7 µM)	13 µg/mL (≈ 35.3 µM)	15 µg/mL (≈ 40.7 µM)	16 µg/mL (≈ 43.4 µM)	11 µg/mL (≈ 29.9 µM)	O=C(Cn1ncc2cc([N+](=O)[O-])ccc21)N/N=C/c1cccc([N+](=O)[O-])c1	25.4 mm	23.5 mm	20.9 mm	23.8 mm	22.9 mm	23.6 mm	22.5 mm	20 mm	21.9 mm	24.9 mm	18.7 mm	19 mm
38 µg/mL (≈ 162 µM)	36 µg/mL (≈ 153 µM)	32 µg/mL (≈ 136 µM)	32 µg/mL (≈ 136 µM)	43 µg/mL (≈ 183 µM)	28 µg/mL (≈ 119 µM)	NNC(=O)Cn1ncc2cc([N+](=O)[O-])ccc21	10.5 mm	10 mm	7 mm	8.9 mm	8.3 mm	8 mm	7 mm	6 mm	7 mm	10 mm	5 mm	6 mm
20 µg/mL (≈ 55.9 µM)	17 µg/mL (≈ 47.5 µM)	17 µg/mL (≈ 47.5 µM)	17 µg/mL (≈ 47.5 µM)	18 µg/mL (≈ 50.3 µM)	13 µg/mL (≈ 36.3 µM)	O=C(Cn1ncc2cc([N+](=O)[O-])ccc21)N/N=C/c1ccc(Cl)cc1	22.9 mm	21.9 mm	19 mm	21.4 mm	20.8 mm	21.7 mm	20 mm	18 mm	20.1 mm	22.7 mm	16.8 mm	16.8 mm
32 µg/mL (≈ 90.6 µM)	25 µg/mL (≈ 70.8 µM)	22 µg/mL (≈ 62.3 µM)	25 µg/mL (≈ 70.8 µM)	38 µg/mL (≈ 108 µM)	18 µg/mL (≈ 50.9 µM)	COc1ccc(/C=N/NC(=O)Cn2ncc3cc([N+](=O)[O-])ccc32)cc1	16.2 mm	15 mm	12.6 mm	14 mm	13.9 mm	14.8 mm	12.2 mm	11 mm	13.9 mm	15.1 mm	10 mm	10 mm
25 µg/mL (≈ 62.2 µM)	18 µg/mL (≈ 44.8 µM)	18 µg/mL (≈ 44.8 µM)	18 µg/mL (≈ 44.8 µM)	21 µg/mL (≈ 52.2 µM)	15 µg/mL (≈ 37.3 µM)	O=C(Cn1ncc2cc([N+](=O)[O-])ccc21)N/N=C/c1cccc(Br)c1	20.7 mm	20.1 mm	17.4 mm	19 mm	18.8 mm	20 mm	17.8 mm	15.9 mm	18.3 mm	20.9 mm	15.1 mm	14.5 mm

Source: ChEMBL document CHEMBL1240428, “Conventional and microwave assisted synthesis of some new N-[(4-oxo-2-substituted aryl -1, 3-thiazolidine)-acetamidyl]-5-nitroindazoles and its antimicrobial activity” (2010)
